Measured values reported in ChEMBL document CHEMBL5532742, “Design and Synthesis of the Linezolid Bioisosteres to Resolve the Serotonergic Toxicity Associated with Linezolid” (ACS Med Chem Lett, 2024).
In brackets after ≈: the same amount, converted by molar mass.

What was measured:
Type in all cases: functional
Conditions in all cases: time 1 weeks
[1] = test system: Mycobacterium tuberculosis; experiment: Antimycobacterial activity against high-grade rifampicin resistant Mycobacterium tuberculosis clinical isolate harboring rpoB S531L mutant incubated for 1 week by resazurin dye based fluorescence analysis
[2] = test system: Mycobacterium tuberculosis; experiment: Antimycobacterial activity against high-grade isoniazid, rifampicin, ethambutol and pyrazinamide resistant Mycobacterium tuberculosis clinical isolate harboring mutations in inhA, katG, rpoB H526D, eis genes incubated for 1 week by resazurin dye based fluorescence analysis
[3] = test system: Mycobacterium tuberculosis; experiment: Antimycobacterial activity against low-grade isoniazid resistant Mycobacterium tuberculosis clinical isolate harboring mutation in inhA promoter region incubated for 1 week by resazurin dye based fluorescence analysis
[4] = test system: Mycobacterium tuberculosis; experiment: Antimycobacterial activity against high-grade isoniazid resistant Mycobacterium tuberculosis clinical isolate harboring katG S315T mutant incubated for 1 week by resazurin dye based fluorescence analysis

| SMILES | MIC50 [1] [µM] | MIC50 [2] [µM] | MIC50 [3] [µM] | MIC50 [4] [µM] |
| --- | --- | --- | --- | --- |
| O=C1O[C@@H](CNS(=O)(=O)c2cccs2)CN1c1ccc(N2CCOCC2)c(F)c1 | 3.32 (≈ 1.47 µg/mL) | 7.01 (≈ 3.09 µg/mL) | 1.98 (≈ 0.874 µg/mL) | 4.52 (≈ 2 µg/mL) |
| O=C(NC[C@H]1CN(c2ccc(N3CCOCC3)c(F)c2)C(=O)O1)C1CC1 | 0.82 (≈ 0.298 µg/mL) | 1.99 (≈ 0.723 µg/mL) | 0.33 (≈ 0.12 µg/mL) | 1.53 (≈ 0.556 µg/mL) |
| O=C(NC[C@H]1CN(c2ccc(N3CCOCC3)c(F)c2)C(=O)O1)c1cccs1 | 2.78 (≈ 1.13 µg/mL) | 5.01 (≈ 2.03 µg/mL) | 1.78 (≈ 0.722 µg/mL) | 4.01 (≈ 1.63 µg/mL) |
| CCS(=O)(=O)NC[C@H]1CN(c2ccc(N3CCOCC3)c(F)c2)C(=O)O1 | 0.24 (≈ 0.093 µg/mL) | 0.92 (≈ 0.356 µg/mL) | 0.14 (≈ 0.0542 µg/mL) | 0.53 (≈ 0.205 µg/mL) |
| CS(=O)(=O)NC[C@H]1CN(c2ccc(N3CCOCC3)c(F)c2)C(=O)O1 | 1.82 (≈ 0.68 µg/mL) | 8.83 (≈ 3.3 µg/mL) | 0.85 (≈ 0.317 µg/mL) | 10.35 (≈ 3.86 µg/mL) |
| NNC(=O)c1ccncc1 [ISONIAZID] | 23.03 (≈ 3.16 µg/mL) | >100 | 0.98 (≈ 0.134 µg/mL) | 11.06 (≈ 1.52 µg/mL) |
| CC(=O)NC[C@H]1CN(c2ccc(N3CCOCC3)c(F)c2)C(=O)O1 [LINEZOLID] | 0.24 (≈ 0.081 µg/mL) | 0.81 (≈ 0.273 µg/mL) | 0.12 (≈ 0.0405 µg/mL) | 0.42 (≈ 0.142 µg/mL) |
| CO[C@H]1/C=C/O[C@@]2(C)Oc3c(C)c(O)c4c(O)c(c(/C=N/N5CCN(C)CC5)c(O)c4c3C2=O)NC(=O)/C(C)=C\C=C\[C@H](C)[C@H](O)[C@@H](C)[C@@H](O)[C@@H](C)[C@H](OC(C)=O)[C@@H]1C [RIFAMPIN] | 28.15 (≈ 23.2 µg/mL) | >100 | <0.04 | <0.04 |
